Results as given in the NIST ThermoML archive (doi:10.1021/je7004837).
Numbers after ± are expanded uncertainties.

Settings: Liquid, Ebulliometric method (Recirculating still)

vapor or sublimation pressure (273.15 K) [kPa]	vapor or sublimation pressure (283.15 K) [kPa]	vapor or sublimation pressure (293.15 K) [kPa]	vapor or sublimation pressure (303.15 K) [kPa]	vapor or sublimation pressure (313.15 K) [kPa]	vapor or sublimation pressure (323.15 K) [kPa]	SMILES
104 ± 2	150 ± 2	208 ± 2	284 ± 2	378 ± 2	494 ± 3	CCCC [butane]
194 ± 2	280 ± 2	389 ± 3	527 ± 3	704 ± 3	920 ± 4	FC(C(F)(F)F)C(F)(F)F [1,1,1,2,3,3,3-heptafluoropropane]
